According to ChEMBL document CHEMBL1201862, “PubChem BioAssay data set” (2004):
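These data come from cells grown in 96-well plates and exposed to compound for 48 hours at five concentrations. At the GI50, growth is halved.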 The source made the active and inactive calls. No stated cut-off is given here; in the data, active = GI50 up to about 1.1 µM and inactive = higher.

Assays:
Test in all cases: NCI anticancer screen, dose series, 48 h
[1] = system: HL-60
[2] = system: NCI-H226
[3] = system: SK-MEL-5
[4] = system: HOP-62
[5] = system: HT-29
[6] = system: SF-295
[7] = system: SNB-75
[8] = system: NCI/ADR-RES
[9] = system: CCRF-CEM
[10] = system: UO-31
[11] = system: NCI-H23
[12] = system: LOX IMVI
[13] = system: UACC-62
[14] = system: NCI-H460
[15] = system: MDA-MB-231
[16] = system: MDA-MB-435
[17] = system: TK-10
[18] = system: SR
[19] = system: 786-0
[20] = system: Hs-578T

Measured: GI50

CCOC(=O)NC(=O)c1cn(CCN(CCO)C(=O)NCCCCCCNC(=O)N(CCO)CCn2cc(C(=O)NC(=O)OCC)c(=O)[nH]c2=O)c(=O)[nH]c1=O
inactive: [1] > 100 µM | [2] > 100 µM | [3] > 100 µM | [4] > 100 µM | [5] > 61 µM | [6] > 100 µM | [7] > 100 µM | [8] > 100 µM | [9] > 100 µM | [10] > 100 µM | [11] > 100 µM | [12] > 100 µM | [13] > 100 µM | [14] > 100 µM

NC(Cc1ccccc1)C(=O)N[C@H]1c2ccsc2/C(=N/O)[C@H]1O (some centres undefined)
inactive: [1] > 100 µM | [15] > 100 µM | [2] > 100 µM | [16] > 100 µM | [3] > 100 µM | [4] > 100 µM | [5] > 100 µM | [6] > 100 µM | [8] > 100 µM | [9] > 100 µM | [10] 25.6 µM | [11] > 100 µM | [12] > 100 µM | [13] > 100 µM | [17] > 100 µM | [14] > 100 µM | [18] > 100 µM

O=C(OCC(OC(=O)c1ccccc1)C(OC(=O)c1ccccc1)C(OC(=O)c1ccccc1)c1cnn(-c2ccccc2)n1)c1ccccc1 (centres undefined)
inactive: [1] > 100 µM | [2] > 100 µM | [16] > 100 µM | [3] > 100 µM | [19] > 100 µM | [4] > 100 µM | [5] > 100 µM | [6] > 100 µM | [20] > 100 µM | [8] > 100 µM | [9] > 100 µM | [10] > 100 µM | [11] > 100 µM | [12] > 100 µM | [13] > 100 µM | [17] > 100 µM | [14] > 100 µM | [18] > 100 µM

O=C(Cc1nc2ccc(C(=O)c3ccccc3)cc2nc1O)C(=O)Nc1ccc(C(F)(F)F)cc1[N+](=O)[O-]
inactive: [1] 31.6 µM | [2] 87.1 µM | [3] 39.7 µM | [19] > 100 µM | [4] 91.8 µM | [5] 50.9 µM | [6] 94.2 µM | [7] 45.9 µM | [9] 27.3 µM | [10] 61.2 µM | [11] 75 µM | [12] 39.4 µM | [13] 38.9 µM | [17] > 100 µM | [14] 57.8 µM | [18] 26.9 µM

O=C1CCCCCCCCCCC1CN1CCCCC1 (centres undefined)
inactive: [1] 87.1 µM | [2] 28.2 µM | [3] 15 µM | [19] > 100 µM | [4] > 100 µM | [5] 35.6 µM | [6] 46.9 µM | [7] 39.1 µM | [9] 66.8 µM | [10] 39 µM | [11] 26.9 µM | [12] 70.6 µM | [13] 88.9 µM | [17] 38.4 µM | [14] 51.1 µM | [18] > 100 µM

CC(C)NC(=O)OCc1c2c(n(C)c1COC(=O)NC(C)C)-c1ccccc1CC2
inactive: [1] 2.55 µM | [2] 11.9 µM | [3] 14.4 µM | [4] 13 µM | [5] 15.2 µM | [6] 15.9 µM | [7] 14.1 µM | [8] 15 µM | [9] 2.07 µM | [10] 14.8 µM | [11] 6.71 µM | [12] 9.31 µM | [13] 12.7 µM | [14] 14.1 µM

C=C(C)[C@@H]1CC[C@@H](C)[C@](O)([C@@H]2C[C@@H]([C@H](COC(=O)c3ccccc3)OC(=O)c3ccccc3)OC2=O)C1
inactive: [15] > 100 µM | [2] > 100 µM | [16] > 100 µM | [3] > 100 µM | [19] > 100 µM | [4] > 100 µM | [5] > 100 µM | [6] > 100 µM | [7] > 100 µM | [8] > 100 µM | [9] > 100 µM | [10] 29 µM | [11] > 100 µM | [12] > 100 µM | [13] > 100 µM | [17] > 100 µM | [14] 39.1 µM | [18] 24.9 µM

COc1ccc(C(=O)Cc2ccc(Br)cc2)cc1OC
inactive: [1] > 100 µM | [2] > 100 µM | [3] > 100 µM | [4] 79.1 µM | [5] > 100 µM | [6] 40 µM | [7] 27.5 µM | [9] > 100 µM | [10] > 100 µM | [11] > 100 µM | [12] > 100 µM | [13] > 100 µM | [17] 56 µM | [14] > 100 µM | [18] > 100 µM

Clc1ccc(Cl)c2[s+]snc12
inactive: [1] 50.7 µM | [2] > 100 µM | [3] 76 µM | [19] > 40.9 µM | [4] > 85.3 µM | [5] 25 µM | [6] > 76.6 µM | [7] 41.2 µM | [9] 50.8 µM | [10] > 100 µM | [11] > 100 µM | [12] 31 µM | [13] 43.4 µM | [17] > 100 µM | [14] 30.7 µM | [18] > 100 µM
